From patent US11040958B2, “Triazole antimicrobial derivative, pharmaceutical composition and use thereof” (priority 2017, dated 2021)
Read-outs that look alike come from different tables or passages of the source.

Assays:
[1] = Solubility test in deionized water (HPLC, external calibration); format: physicochemical
Experimental: Experimental condition: 25±2° C.
Dissolving medium: deionized water
Experimental method: 1 mg voriconazole and appropriate amount of each compound were weighed, placed in 1 ml deionized water separately, shaken vigorously for 30 s every 5 mins for 30 mins.

[2] = In vitro metabolic stability in human plasma; format: in vitro ADME; conditions: 37°C, compound 10 μM
Experimental: (§1) The two reaction systems were set up three samples in parallel, while each sample was taken in an amount of 100 μL at 1 min, 2 mins, 5 mins, 15 mins, and 30 mins after the reaction, added to the centrifuge tube containing 400 μL of 0° C. pre-cooled internal standard working fluid and terminated the reaction. The sample was mixed by vortex for 1 min, centrifuged at 10,000×g for 10 mins in a 4° C. pre-cooled high-speed centrifuge. The supernatant was taken for HPLC detection.

[3] = In vitro metabolic stability in human intestinal S9; format: in vitro ADME; conditions: 37°C, S9 1 mg/mL, compound 10 μM, NADPH regeneration system
Experimental: as §1, with “detection. […] Concentration of mother liquor of compounds: 1 mM […] [table]” for “detection.”

[4] = In vitro metabolic stability in rat plasma; format: in vitro ADME; conditions: 37°C, compound 10 μM
Experimental: as §1, with “detection. […] Concentration of mother liquor of compounds: 1 mM […]” for “detection.”

[5] = In vitro metabolic stability in rat intestinal S9; format: in vitro ADME; conditions: 37°C, S9 1 mg/mL, compound 10 μM, NADPH regeneration system
Experimental: as §1, with “detection. […] Concentration of mother liquor of compounds: 1 mM […] [table]” for “detection.”

[6] = Pharmacokinetics after single intravenous administration in rats (plasma voriconazole)
Experimental: Dosage for administration: 2.5 mg/kg (calculated as voriconazole)
Dosing volume for administration: 2.5 ml/kg
Drug concentration: 1 mg/mL (calculated as voriconazole)
Route of administration: tail vein injection Experimental animals: SD rats, SPF grade, weighing 180-220 g, half male and half female; the SD rats were randomized into groups of 6 animals each, three males and three females in each group. Experimental method: Blood samples were collected at different time points after tail vein administration, and the plasma concentrations of voriconazole were measured.

[7] = Pharmacokinetics after single gastrointestinal (gavage) administration in rats (plasma voriconazole); format: in vivo; conditions: SD rats, 2.5 mg/kg (calculated as voriconazole)
Experimental: Dosing volume for administration: 10 ml/kg
Solvent medium for administration: except for the positive voriconazole group using CMC-Na, the other groups using normal saline
Route of administration: gavage

[8] = tested on: Candida albicans ATCC10231; assay: Systemic fungal infection in mice, intravenous administration, survival; format: in vivo; conditions: ICR mice, tail vein, 5 mg/kg (calculated as voriconazole) once daily for 5 days
Experimental: (§2) ICR mice, weighing 18-22 g, male, provided by the Hubei Experimental Animal Center.
(§3) The standard strain Candida albicans was purchased from the American Type Culture Collection, and the strain number was ATCC10231.
Before the experiment, a small amount of Candida albicans was picked from the SDA medium preserved at 4° C. by inoculation circle, and inoculated into 1 ml YPD (Yeast Extract Peptone Dextrose Medium, the same below) culture medium, under shake cultivation at 30° C., 200 rpm, activated for 16 hours to make the fungus in the late stage of the exponential growth phase. Blood cell counting plate was used to count. The concentration of the broth was adjusted to 1*10^3-5*10^3 CFU/ml with RPMI1640 (Roswell Park Memorial Institute 1640, the same below) culture medium. The Candida albicans monoclone on the SDA plate was picked and inoculated into 1 ml YPD medium, cultured at 35° C., 200 rpm for 16 hours to the late exponential growth phase, 1% of which was then inoculated in fresh medium for 6 hours, centrifuged at 1000×g for 5 mins, washed three times with saline until the supernatant was colorless, while hemocytometer was used to count. The cell concentration was adjusted to 5*10^6/ml. The tail vein injection of 0.1 ml/10 g was carried out to cause a systemic fungal infection in mice. The mice were randomized into groups of 10 each. Since voriconazole was insoluble in vehicle (physiological saline), the mice of the voriconazole group in the test were injected a commercially available voriconazole (Pfizer, product lot number Z467001), that is, sulfobutyl ether-β-cyclodextrin used as a solubilizer, while other groups used physiological saline as a solvent. After establishing a systemic fungal infection model in mice for 2 hours, each administration group was administered with 5 mg/kg (calculated as voriconazole) drug in the tail vein, with the volume for administration of 0.1 ml/10 g. The mice in the model group were administered 0.1 ml/10 g of 0.9% sodium chloride solution, once daily, for 5 consecutive days. The death situation of the mice was inspected and the survival time was recorded. After a total of 7 days of observation, all dead mice were treated with fire using ethanol.

[9] = tested on: Candida albicans ATCC10231; assay: Systemic fungal infection in mice, administration by gavage, survival; format: in vivo; conditions: ICR mice, 5 mg/kg (calculated as voriconazole) once daily for 5 days
Experimental: as §2, §3
Before the experiment, a small amount of Candida albicans was picked from the SDA medium preserved at 4° C. by inoculation circle, inoculated into 1 ml of YPD culture medium, and cultured at 30° C. while being shaken at 200 rpm for 16 hours to make the fungus in the late stage of exponential growth. Blood cell counting plate was used to count, and the concentration of the broth was adjusted to 1*10^3−5*10^3 CFU/ml with RPMI1640 medium. The Candida albicans monoclone on the SDA plate was picked, inoculated into 1 ml YPD medium, cultured at 35° C., 200 rpm for 16 hours to the late exponential growth phase, 1% of which was then inoculated in fresh medium for 6 hours, centrifuged at 1000×g for 5 mins, washed three times with saline until the supernatant was colorless, while hemocytometer was used to count. The cell concentration was adjusted to 5*10^6/ml. The tail vein injection of 0.1 ml/10 g was carried out to cause a systemic fungal infection in mice. The mice were randomized into groups of 10 each. Voriconazole used was in the form of a suspension prepared with CMC-Na (Shanghai Panhong Chemical Technology Co., Ltd.), while other tested drugs were dissolved in saline and sonicated until clarified for administration. After establishing a systemic fungal infection model in mice for 2 hours, each group was administered by gavage with 5 mg/kg (calculated as voriconazole) drug, with the volume for administration of 0.1 ml/10 g. The mice in the model group were administered 0.1 ml/10 g of 0.9% sodium chloride solution, once daily, for 5 consecutive days. The death situation of the mice was inspected and the survival time was recorded. After a total of 7 days of observation, all dead mice were treated with fire using ethanol.

[10] = voriconazole in plasma, SD rats, tail vein injection, 2.5 mg/kg (calculated as voriconazole)

| SMILES | Human plasma T1/2 [2] [min] | Human intestinal S9 T1/2 [3] [min] | Rat plasma T1/2 [4] [min] | Rat intestinal S9 T1/2 [5] [min] | AUClast [7] [ng·h/mL] | Cmax [7] [ng/mL] | T1/2 [7] [min] | survival rate of mice, day 1 [8] [%] | survival rate of mice, day 2 [8] [%] | survival rate of mice, day 3 [8] [%] | survival rate of mice, day 4 [8] [%] | survival rate of mice, day 5 [8] [%] | survival rate of mice, day 6 [8] [%] | survival rate of mice, day 1 [9] [%] | survival rate of mice, day 2 [9] [%] | survival rate of mice, day 3 [9] [%] | survival rate of mice, day 4 [9] [%] | survival rate of mice, day 5 [9] [%] | survival rate of mice, day 6 [9] [%] | survival rate of mice, day 7 [9] [%] | other results |
| --- | --- | --- | --- | --- | --- | --- | --- | --- | --- | --- | --- | --- | --- | --- | --- | --- | --- | --- | --- | --- | --- |
| CC(OC(=O)N(C)c1ncccc1COC(=O)CN)[n+]1cnn(C[C@](O)(c2ccc(F)cc2F)[C@@H](C)c2ncncc2F)c1.[Cl-] (some centres unmarked) [QR16001] | 1.56 ± 0.26 | 10.09 ± 1.75 | 1.23 ± 0.45 | 10.15 ± 2.65 | 8562 ± 1125 | 789 ± 362 | 193 ± 76.8 | 100 | 100 | 100 | 100 | 100 | 100 | 100 | 100 | 100 | 100 | 90 | 80 | 80 | Solubility ([1]; deionized water, 25±2°C): >50 mg/mL; AUClast ([6]; rat, in vivo, 2.5 mg/kg): 10515 ± 1985 ng·h/mL; T1/2 ([6]; rat, in vivo, 2.5 mg/kg): 128 ± 58.8 min |
| CC(OC(=O)N(C)c1ncccc1COC(=O)C(N)CO)[n+]1cnn(CC(O)(c2ccc(F)cc2F)C(C)c2ncncc2F)c1.Cl.Cl.[Cl-] (centres unmarked) [QR16015] | 2.05 ± 0.26 | 12.72 ± 1.72 | 1.58 ± 0.95 | 15.95 ± 4.96 | 8144 ± 1468 | 996 ± 365 | 167 ± 73.8 | 100 | 100 | 100 | 100 | 100 | 90 | 100 | 100 | 100 | 100 | 100 | 80 | 80 | Solubility ([1]; deionized water, 25±2°C): >50 mg/mL; AUClast ([6]; rat, in vivo, 2.5 mg/kg): 10526 ± 2695 ng·h/mL; T1/2 ([6]; rat, in vivo, 2.5 mg/kg): 171 ± 107 min |
| CC(O)C(N)C(=O)OCc1cccnc1N(C)C(=O)OC(C)[n+]1cnn(CC(O)(c2ccc(F)cc2F)C(C)c2ncncc2F)c1.Cl.Cl.[Cl-] (centres unmarked) [QR16016] | 2.12 ± 1.07 | 15.72 ± 0.98 | 1.95 ± 0.87 | 19.62 ± 3.69 | 8332 ± 3254 | 885 ± 344 | 134 ± 75 | 100 | 100 | 100 | 100 | 100 | 90 | 100 | 100 | 90 | 90 | 90 | 90 | 80 | Solubility ([1]; deionized water, 25±2°C): >50 mg/mL; AUClast ([6]; rat, in vivo, 2.5 mg/kg): 10477 ± 1854 ng·h/mL; T1/2 ([6]; rat, in vivo, 2.5 mg/kg): 159 ± 52.8 min |
| CC(OC(=O)N(C)c1ncccc1COC(=O)[C@@H](N)CCCCN)[n+]1cnn(C[C@](O)(c2ccc(F)cc2F)[C@@H](C)c2ncncc2F)c1.[Cl-] (some centres unmarked) [QR16017] | 0.95 ± 0.28 | 11.25 ± 2.21 | 0.78 ± 0.86 | 15.69 ± 6.95 | 8695 ± 2958 | 952 ± 421 | 177 ± 75 | 100 | 100 | 100 | 100 | 100 | 100 | 100 | 100 | 90 | 90 | 90 | 90 | 80 | Solubility [1]: >50 mg/mL; AUClast [6, 10]: 10259 ± 3285 ng·h/mL; T1/2 [6, 10]: 167 ± 45 min |
